Experimental data reported in article PMC4436593, “Endoplasmic reticulum stress-independent activation of unfolded protein response kinases by a small molecule ATP-mimic” (eLife, 2015).

Columns and labels:
[1] = system: IRE1α-GFP in T-REx293 cells; assay: IRE1-GFP foci formation in T-REx293 cells (confocal microscopy); type: cell-based; conditions: doxycycline-induced IRE1α-GFP
Excerpt: We next used a T-REx293 cell line, containing a genome-integrated doxycycline-inducible IRE1α-GFP fusion gene, to monitor IRE1α oligomerization in vivo ([Li et al., 2010]). In the presence of doxycycline, IRE1α-GFP was expressed and localized to the ER (Figure 2D). […] Furthermore, the foci dissolved by 8 hr of treatment as cells attenuated IRE1α signaling even in the presence of unmitigated ER stress (Figure 2D, upper panels) ([Li et al., 2010]). […] While Tm-induced foci became larger and fewer over time as previously observed, IPA-induced foci remained small and numerous.
T-REx293 cells were split 2 days before imaging onto glass-bottom micro-well dishes (MatTek) at 5 × 10^4 cells/dish. Doxycyclin-containing medium (10 nM doxycycline) was added for 24 hr, withdrawn before imaging and replaced with imaging media (Hank's Balanced Salt Solution [Gibco], 2% FBS, and 5 mM HEPES pH 7.0). Images were acquired on a spinning-disk confocal microscope as described ([Li et al., 2010]).

[2] = system: mouse embryonic fibroblast (MEFs) cells; assay: XBP1 mRNA splicing, PERK shift and eIF2α phosphorylation in WT, Ire1−/− and Perk−/− MEFs; type: cell-based; conditions: IPA 1 µM, 4 hr
Excerpt: PERK activation by IPA could be due to direct binding of IPA to PERK, or it could be caused by indirect activation of PERK by IRE1. If the latter were true, IPA should not trigger PERK activation in the absence of IRE1. To test this notion, we treated mouse embryonic fibroblasts (MEFs) derived from Ire1α^−/− and Perk^−/− knock-out mice with IPA and monitored XBP1 mRNA splicing, and PERK and eIF2α phosphorylation.
(§1) Cells were lysed and total RNA was collected (Total RNA Kit 1, EZ-RNA, EZNA [USA]). PolyA^+ mRNA was reverse transcribed with M-MLV (Invitrogen), and the resulting cDNA was used as a template for PCR amplification across the fragment of XBP1 cDNA containing the intron. Primers used to amplify human XBP1: 5′-[…]-3′ and 5′-[…]-3′. To amplify murine XBP1: 5′-[…]-3′ and 5′-[…]-3′. PCR conditions were as follows: 95°C for 5 min, 95°C for 1 min, 58°C for 30 s, 72°C for 30 s, and 72°C for 5 min, with 20 cycles of amplification. PCR products were resolved on a 2.5% agarose tris-acetate EDTA (TAE) gel. As previously reported, a hybrid amplicon species consisting of unspliced Xbp-1 annealed to spliced Xbp-1 can also be produced through this PCR reaction and was visible as a slower migrating band above the unspliced amplicon. The same cDNA was used as template for PCR of DERLIN-3 and HERPUD1, both ATF6 targets, and GAPDH, which was used as loading control. Primers used included the following: DERLIN-3, 5′-[…]-3′ and 5′-[…]-3′; HERPUD1-1, 5′-[…]-3′ and 5′-[…]-3′; GAPDH, 5′-[…]-3′ and 5′-[…]-3′. PCR conditions were: 95°C × 5 min, 95°C × 1 min, 56°C × 30 s, 72°C for 30 s for 25 cycles, 72°C for 5 min at 4°C. PCR products were resolved on a 2% agarose TAE gel.
Cells were lysed in 50 mM Tris-HCl, 2% SDS, 10% glycerol, 0.01% bromophenol blue, pH 6.8 supplemented with phosphatase inhibitors (Sigma) and protease inhibitors (Roche). 30 μg to 50 μg of total protein was loaded on each lane of 8% or 10% SDS-PAGE gels. The separated proteins were then transferred onto nitrocellulose membranes for immunoblotting. The following antibodies and dilutions were used: anti-β-actin 1:10,000 (A5441, Sigma), anti-total PERK at 1:1000 (C33E10, Cell Signaling Technology), anti-phospho eIF2α at 1:1000 (3597S, Cell Signaling Technology), anti-total eIF2α at 1:1000 (L57A5, Cell Signaling Technology). After overnight incubation with primary antibody, membranes were washed in PBS with 0.05% Tween and incubated in HRP-coupled secondary antibody anti-rabbit (611–1302, Rockland) or anti-mouse (610–1302, Rockland) diluted at 1:5000 in wash buffer. Immunoreactive bands were detected by chemiluminescence.

[3] = target: T1, GST-PERK kinase domain (580–1077 aa) (Mus musculus, UniProt Q9Z2B5); assay: In vitro GST-PERK kinase assay (eIF2α phosphorylation with γ-[32P]-ATP)
T1 sequence (Q9Z2B5 580-1077): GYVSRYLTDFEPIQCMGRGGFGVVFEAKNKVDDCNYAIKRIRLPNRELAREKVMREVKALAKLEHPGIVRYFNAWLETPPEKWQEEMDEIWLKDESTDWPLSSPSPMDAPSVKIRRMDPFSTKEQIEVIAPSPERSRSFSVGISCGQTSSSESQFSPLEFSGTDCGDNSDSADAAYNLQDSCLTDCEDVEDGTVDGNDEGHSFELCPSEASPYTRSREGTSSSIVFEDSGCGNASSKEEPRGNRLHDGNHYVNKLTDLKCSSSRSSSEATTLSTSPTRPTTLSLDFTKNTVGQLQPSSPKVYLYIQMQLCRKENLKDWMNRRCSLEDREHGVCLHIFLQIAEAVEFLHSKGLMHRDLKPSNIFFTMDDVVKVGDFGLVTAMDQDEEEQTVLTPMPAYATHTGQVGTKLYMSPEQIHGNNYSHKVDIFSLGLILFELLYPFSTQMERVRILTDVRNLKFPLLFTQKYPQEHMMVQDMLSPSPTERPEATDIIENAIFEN

[4] = system: ATF6 transcriptional targets HERPUD1 (HERP1) and DERLIN3 (DERL3); assay: ATF6 target mRNAs HERP1 and DERL3 by RT-PCR in HEK293T cells; type: cell-based; conditions: IPA 1 μM and 4 μM, Tm
Excerpt: To assess the effects of IPA on the activity of the two other UPR branches, we first examined activation of ATF6. To this end, we monitored mRNA levels by RT-PCR for two ATF6-driven transcriptional target genes, HERP1 and DERL3, in HEK293T cells.
as §1, with “PCR conditions were: 95°C × 5 min, 95°C × 1 min, 56°C × 30 s, 72°C for 30 s for 25 cycles, 72°C for 5 min at 4°C. PCR products were resolved on a 2% agarose TAE gel.” left out

[5] = system: protein translation in HEK293T cells; assay: Metabolic labeling: [35S] methionine incorporation in HEK293T cells; type: cell-based; conditions: IPA 1 μM
Protocol: HEK293T cells (500,000 cells/ml) were plated in 12-well flat bottom culture cluster dishes (Costar, Fisher Scientific) 24 hr before the experiment. IPA (1 μM), or a combination of IPA with GSK2606414 (TRC inc. […] Cells lysates were kept on ice for 30 min before high-speed centrifugation followed by denaturation at 95°C. The samples were resolved on an SDS-polyacrylamide gel, which were then stained with Coomassie blue to ascertain protein loading. […] The resulting autoradiograms were quantified using ImageQuant software (Molecular Dynamics).

CSc1ccc(NC(=O)Nc2ccc(Nc3nccc(Nc4cc(C5CC5)[nH]n4)n3)cc2)cc1 [IPA]
IRE1α-GFP foci formation [1]: caused relocalization of IRE1α-GFP into foci | PERK phosphorylation and eIF2α phosphorylation in Ire1α−/− MEFs ([2]; Ire1α−/− MEFs): pronounced PERK phosphorylation | XBP1 mRNA splicing in Ire1α−/− MEFs ([2]; Ire1α−/− MEFs): no IPA-induced XBP1 mRNA splicing | eIF2α phosphorylation in Perk−/− MEFs ([2]; Perk−/− MEFs): only a trace amount of IPA-induced eIF2α phosphorylation | UPR branch activation in wild-type MEFs ([2]; WT MEFs): induced both the PERK and IRE1 branches of the UPR | IC50 [3]: 2800 nM | induction of ATF6 target genes HERP1 and DERL3 [4]: no detectable induction | incorporation of [35S]-methionine into newly synthesized proteins [5]: impaired
